These results are taken from article PMC11240924, “Isolation, Identification, and Biological Activities of a New Chlorin e6 Derivative” (International Journal of Molecular Sciences, 2024).

The subject of series [1] is MIA-PaCa-2 cells. Nature of the series: Detection of ROS with DCFH-DA after PDT. It counts as cell-based, Human. Conditions: for ROS level after PDT (DCFH-DA): MIA-PaCa-2, 1, 5, 10, 20, 40, and 80 μM, 3 h, laser. The protocol:
MIA-PaCa-2 cells (density: 5 × 10^3 cells/well) were seeded onto 96-well plates and incubated in a complete medium for 24 h at 37 °C. Then, the medium was replaced with a fresh culture medium containing chlorin e6 or rhodin g7 7^1-ethyl ester at different concentrations (1, 5, 10, 20, 40, and 80 μM) and then incubated for 3 h at 37 °C. After incubation, the cells were washed three times with PBS, and the cells were irradiated using a 630 nm laser at a power of 100 mW/cm^2 for 300 s. After irradiation, a fresh culture medium containing 20 μM dichlorodihydrofluorescin diacetate (DCFH-DA) was added, and the cells were incubated for another 20 min. Fluorescence detection of DCFH-DA was performed via the fluorescence microplate reader using the Spark Multimode Microplate Reader (Tecan Trading AG, Männedorf, Switzerland).

For series [2], the system named is ICR mice. Set-up: method as in PMID 30609768. Conditions: chlorin e6, greatly declined at 24 h; cited from earlier work.
A short description of series [3]: MTT cytotoxicity (PDT and dark), PANC-1. It counts as cell-based, Human. The settings on record: human, PANC-1 cells, no illumination, MTT after 24 h. An excerpt: (§1) B16F10 (KCLB80008), MIA PaCa-2 (KCLB21420), PANC-1 (KCLB21469), HT-29 (KCLB30038), AsPC-1 (KCLB21682), and Raw 264.7 (KCLB40071) cells were procured from the Korean Cell Line Bank (KCLB, Seoul, Republic of Korea). AsPC-1 and RAW264.7 were thawed and maintained in RPMI-1640 media (Life Technologies corporation, Carlsbad, CA, USA) supplemented with 10% fetal bovine serum (Life Technologies corporation, USA) and 1% penicillin and streptomycin (Life Technologies corporation, USA), while MIA PaCa-2, PANC-1, HT-29, and B16F10 cell lines were cultured in DMEM (Life technologies corporation, USA) containing 10% fetal bovine serum and 1% penicillin and streptomycin. All the cells were cultured at 37 °C in a 5% CO2 incubator.
(§2) After seeding B16F10 or MIA PaCa-2 at a density of 5 × 10^3 cells/well and PANC-1, HT-29, or AsPC-1 at a density of 1 × 10^4 cells/well in 96-well plates, the cells were incubated overnight at 37 °C in a CO2 incubator. The cells were exposed to different doses of either chlorin e6 or rhodin g7 7^1-ethyl ester (0, 2.5, 5, 10, 20, 40, and 80 µM) for 3 h. After the incubation, the cells were either subjected to a 660 nm laser with a power density of 50 mW (0.5 J/cm^2) or not and were further incubated for 24 h at 37 °C. Moreover, the MTT assay was used to analyze the cell viability. The absorbance values of 540 nm were then measured using a microplate reader (Multiskan GO, Thermo Fisher Scientific, Oy, Ratastie 2, FI-01620 Vantaa, Finland).

The test system of series [4] is PANC-1. Nature of the series: MTT cytotoxicity (PDT and dark), PANC-1. It counts as cell-based, Human. Conditions: Homo sapiens, light or radiation study, 3 h exposure, 660 nm laser 0.5 J/cm^2, MTT after 24 h.
Source text: as §1, §2

Series [5] can be described thus: MTT cytotoxicity (PDT and dark), HT29. It counts as cell-based, Human. The settings on record: human, HT-29 cells, no illumination, MTT after 24 h.
Source text: as §1, §2

Series [6] concerns HT29. The series is described as follows: MTT cytotoxicity (PDT and dark), HT29. The class given is cell-based, Human. The settings on record: Homo sapiens, HT-29, light or radiation study, 3 h exposure, 660 nm laser 0.5 J/cm^2, MTT after 24 h.
Source text: as §1, §2

Series [7] is described as follows: MTT cytotoxicity (PDT and dark), B16F10. Conditions: mouse, B16F10 cells, no illumination, MTT after 24 h. The class given is cell-based, Murine.
Source text: as §1, §2

The test system of series [8] is B16F10. The series is described as follows: MTT cytotoxicity (PDT and dark), B16F10. It counts as cell-based, Murine. The settings on record: Mus musculus, B16-F10, light or radiation study, 3 h exposure, 660 nm laser 0.5 J/cm^2, MTT after 24 h.
Source text: as §1, §2

Series [9] concerns AsPC-1. The series is described as follows: MTT cytotoxicity (PDT and dark), AsPC-1. The class given is cell-based, Human. Conditions: Homo sapiens, ASPC1, light or radiation study, 3 h exposure, 660 nm laser 0.5 J/cm^2, MTT after 24 h.
Source text: as §1, §2

Series [10] relates to ICR mice. The series is described as follows: Biodistribution, ex vivo organ fluorescence. It counts as in vivo. Conditions: 2.5 mg/kg intravenous. The protocol:
The animal study was approved by the Institutional Animal Care and Use Committee of the Dongsung Cancer Center under protocol IACUC # ds0022010107-2. The experiments were carried out in compliance with the ARRIVE guidelines. Male ICR mice (4 weeks old, OrientBio, Seongnam City, Republic of Korea) were used for the biodistribution study. The biodistribution analysis for rhodin g7 7^1-ethyl ester was calculated using tissue fluorescence. ICR mice (n = 7) were injected with or without rhodin g7 7^1-ethyl ester (2.5 mg/kg) intravenously. After the administration of rhodin g7 7^1-ethyl ester for 0, 24, 48, 72, 96, and 120 h, the mice were sacrificed, and their organs (kidney, spleen, heart, lungs, liver, skin, and pancreas) were resected. Fluorescence imaging was used to determine the ex vivo organ distributions of rhodin g7 7^1-ethyl ester utilizing the FOBI imaging system (Neo-Science, Suwon, Republic of Korea). For the rhodin g7 7^1-ethyl ester extraction, the organ tissues were then mixed with lysis buffer, homogenized in a tissue homogenizer, and centrifuged at 9000 rpm for 15 min. The rhodin g7 7^1-ethyl ester content in the supernatant was then evaluated using a Spark Multimode Microplate Reader (Tecan Trading AG, Männedorf, Switzerland) spectrophotometrically at 660 nm. The fluorescence intensity was adjusted to the tissue weight.

As usually defined, the IC50 is the concentration needed to halve the response being measured. Low values mean higher potency, high ones lower potency. On to `C=Cc1c(C)c2cc3nc(c(CC(=O)O)c4[nH]c(cc5nc(cc1[nH]2)C(C)=C5CC)c(C)c4C(=O)O)[C@@H](CCC(=O)O)[C@@H]3C` [chlorin e6], for which the “ROS level after PDT (DCFH-DA)” value in series [1] is given as “dose-dependent increase in ROS”. The “time of maximum fluorescence intensity post injection” value in [2] is given as 0 h. For the same molecule, the IC50 was determined as 302 µM in series [3]; 17.9 µM in series [4]; 543 µM in series [5]; 28.1 µM in series [6]; 556 µM in series [7]; 33.6 µM in series [8]. In series [9], the IC50 is 30.4 µM.

With `C=Cc1c(C)c2cc3nc(c(CC(=O)O)c4[nH]c(cc5nc(cc1[nH]2)C(C(=O)OCC)=C5CC)c(C)c4C(=O)O)[C@@H](CCC(=O)O)[C@@H]3C` [rhodin g7 7^1-ethyl ester], the “ROS level after PDT (DCFH-DA)” value in series [1] is “dose-dependent increase in ROS”. In addition, the “ROS production compared to chlorin e6-PDT” value in [1] (MIA-PaCa-2, all concentrations (1-80 μM)) was “likely to produce more ROS than chlorin e6-PDT”. Also, the IC50 was found to be 279 µM in [3]; 8.4 µM in series [4]; 223 µM in [5]; 30.1 µM in [6]; 262 µM in [7]; 12.3 µM in series [8]. Also, the IC50 in series [9] was 49.1 µM. Moreover, the “time of peak fluorescence intensity post injection, all organs” value in series [10] (0-120 h) was 0 h. Besides, the “organ with greatest signal intensity (predominant accumulation)” value in series [10] (ex vivo FLI of excised organs) is “liver”.
